pEC50: −log10 of the molar value. Ends that are not written are not given here. Peptide text beside a SMILES is read from it.
Key:
[1] = target: T1, CRF2R (Homo sapiens, UniProt Q13324); test: CRF2R agonist activity (EC50 and Emax), called comparative CRF binding; assay type: cell-based; settings: CRF2R; read-out: CRF2R EC50
T1 sequence (Q13324 1-411): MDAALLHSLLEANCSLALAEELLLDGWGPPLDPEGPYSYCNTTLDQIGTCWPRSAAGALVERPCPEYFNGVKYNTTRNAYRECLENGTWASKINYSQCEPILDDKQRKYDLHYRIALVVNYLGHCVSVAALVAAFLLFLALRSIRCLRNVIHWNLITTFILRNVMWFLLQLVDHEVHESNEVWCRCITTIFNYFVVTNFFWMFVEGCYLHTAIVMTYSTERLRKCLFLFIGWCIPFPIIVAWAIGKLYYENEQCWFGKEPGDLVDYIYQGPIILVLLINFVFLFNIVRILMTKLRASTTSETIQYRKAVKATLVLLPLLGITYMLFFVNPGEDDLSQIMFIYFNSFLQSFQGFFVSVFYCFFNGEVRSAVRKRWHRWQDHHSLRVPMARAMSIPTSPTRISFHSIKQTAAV
Text: (§1) The pharmacological activity and selectivity of the peptides of present invention can be determined using published test procedures. See, e.g, U.S. patent application Ser. No. 09/799,978. Because CRF2R and CRF1R are homologous proteins, it is expected that a certain proportion of agonists for CRF2R will also function as agonists of CRF1R. As discussed above, activation of CRF1R induces activation of the HPA axis since increased corticosteroid production leads to skeletal muscle atrophy. In most cases in which an increase in muscle mass or function is desired, it is not desirable to activate the HPA axis.
(§2) Because it is desirable to discriminate binding between CRF2R, as compared with CRF1R, the assays described above may be conducted using a cell, or membrane from a cell, which expresses only CRF2R or the assays can be conducted with a recombinant source of CRF2R. Cells expressing both forms of CRFR may be modified using homologous recombination to inactivate or otherwise disable the CRF1R gene. Alternatively, if the source of CRFR contains more than one CRFR type, the background signal produced by the receptor which is not of interest must be subtracted from the signal obtained in the assay. […] Known antagonists of CRFRs include, but are not limited to, antalarmin (CRF1R selective), antisauvagine-30 (CRF2R selective) and astressin (nonselective for CRF1R/CRF2R).
(§3) Cell-based assays include the steps of contacting cells which express CRF1R or CRF2R with a peptide of the present invention or control and measuring activation of the CRFR by measuring the expression or activity of components of the CRFR signal transduction pathways.
(§4) For example, after contact with a peptide of the present invention, lysates of the cells can be prepared and assayed for induction of cAMP. cAMP is induced in response to Gαs activation. Because Gαs is activated by receptors other than CRFR and because a test peptide may be exerting its effect through CRFRs or by another mechanism, two control comparisons are relevant for determining whether the peptide increases levels of cAMP via activation of a CRFR. One control compares the cAMP level of cells contacted with the peptide and the cAMP level of cells contacted with a control compound (i.e., the vehicle in which the peptide is dissolved).
(§5) In one example, cAMP induction is measured with the use of DNA constructs containing the cAMP responsive element linked to any of a variety of reporter genes can be introduced into cells expressing CRFRs. Such reporter genes include, but are not limited to, chloramphenicol acetyltransferase (CAT), luciferase, glucuronide synthetase, growth hormone, fluorescent proteins (e.g., Green Fluorescent Protein), or alkaline phosphatase. Following exposure of the cells to the peptide, the level of reporter gene expression can be quantitated to determine the peptide's ability to increase cAMP levels and thus determine the peptide's ability to activate the CRFR.
(§6) In addition to using cells expressing full length CRFRs, cells can be engineered which express CRFRs containing the ligand binding domain of the receptor coupled to, or physically modified to contain, reporter elements or to interact with signaling proteins. For example, a wild type CRFR or CRFR fragment can be fused to a G-protein resulting in activation of the fused G-protein upon agonist binding to the CRFR portion of the fusion protein. […] In addition, alternative pathways for induction of the CRE reporter could be eliminated to reduce basal levels.

[2] = target: T2, CRF1R (Homo sapiens, UniProt P34998); test: CRF1R agonist activity (EC50 and Emax), called comparative CRF binding; assay type: cell-based; settings: CRF1R; read-out: CRF1R EC50
T2 sequence (P34998 24-415): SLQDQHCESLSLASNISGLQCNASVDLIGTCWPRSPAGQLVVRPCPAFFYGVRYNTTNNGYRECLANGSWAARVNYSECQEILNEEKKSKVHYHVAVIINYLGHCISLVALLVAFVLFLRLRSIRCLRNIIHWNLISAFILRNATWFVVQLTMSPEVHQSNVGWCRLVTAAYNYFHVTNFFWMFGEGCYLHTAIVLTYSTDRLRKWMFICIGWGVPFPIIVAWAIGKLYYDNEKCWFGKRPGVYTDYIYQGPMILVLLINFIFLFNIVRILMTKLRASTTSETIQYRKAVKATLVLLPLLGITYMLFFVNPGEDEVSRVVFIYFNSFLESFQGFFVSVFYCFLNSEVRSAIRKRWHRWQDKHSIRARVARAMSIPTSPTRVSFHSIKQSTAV
Text: as §1, §2, §3, §4, §5, §6

Row | Compound | pEC50 [1] | pEC50 [2]
1 | CC[C@H](C)[C@H](N)C(=O)N[C@H](C(=O)N[C@@H](CC(C)C)C(=O)N[C@@H](CO)C(=O)N[C@@H](CC(C)C)C(=O)N[C@@H](CC(=O)O)C(=O)N[C@H](C(=O)N1CCC[C@H]1C(=O)NCC(=O)N1CCC[C@H]1C(=O)N[C@@H](CC(C)C)C(=O)N[C@@H](CC(C)C)C(=O)N[C@@H](CCC(N)=O)C(=O)N[C@H](C(=O)N[C@@H](CC(C)C)C(=O)N[C@@H](CC(C)C)C(=O)N[C@@H](CCC(=O)O)C(=O)N[C@@H](CCC(N)=O)C(=O)N[C@H](C(=O)N[C@@H](CCCCN)C(=O)N[C@@H](CCC(N)=O)C(=O)N[C@@H](CCC(=O)O)C(=O)N[C@@H](C)C(=O)N[C@@H](C)C(=O)N[C@@H](CCCNC(=N)N)C(=O)N[C@@H](CCC(=O)O)C(=O)N[C@@H](CCC(N)=O)C(=O)N[C@@H](C)C(=O)N[C@H](C(=O)N[C@H](C(=O)N[C@@H](CC(N)=O)C(=O)N[C@@H](C)C(=O)N[C@@H](CCCNC(=N)N)C(=O)N[C@H](C(=O)N[C@@H](CC(C)C)C(=O)N[C@@H](C)C(=O)N[C@@H](CCCNC(=N)N)C(=O)N[C@H](C(N)=O)C(C)C)[C@@H](C)CC)[C@@H](C)O)[C@@H](C)O)[C@@H](C)O)[C@@H](C)CC)C(C)C)C(C)C [compound 5] (H-IVLSLDVPGPLLQILLEQTKQEAAREQATTNARILARV-NH2) | ≤ 7.00 | ≤ 7.00
2 | CC[C@H](C)[C@H](N)C(=O)N[C@H](C(=O)N[C@@H](CC(C)C)C(=O)N[C@@H](CO)C(=O)N[C@@H](CC(C)C)C(=O)N[C@@H](CC(=O)O)C(=O)N[C@H](C(=O)N1CCC[C@H]1C(=O)N[C@H](C(=O)NCC(=O)N[C@@H](CC(C)C)C(=O)N[C@@H](CC(C)C)C(=O)N[C@@H](CCC(N)=O)C(=O)N[C@H](C(=O)N[C@@H](CC(C)C)C(=O)N[C@@H](CC(C)C)C(=O)N[C@@H](CCC(=O)O)C(=O)N[C@@H](CCC(N)=O)C(=O)N[C@@H](C)C(=O)N[C@@H](CCCNC(=N)N)C(=O)N[C@@H](C)C(=O)N[C@@H](CCCNC(=N)N)C(=O)N[C@@H](C)C(=O)N[C@@H](C)C(=O)N[C@@H](CCCNC(=N)N)C(=O)N[C@@H](CCC(=O)O)C(=O)N[C@@H](CCC(N)=O)C(=O)N[C@@H](C)C(=O)N[C@H](C(=O)N[C@H](C(=O)N[C@@H](CCC(N)=O)C(=O)N[C@@H](C)C(=O)N[C@@H](CCCNC(=N)N)C(=O)N[C@H](C(=O)N[C@@H](CC(C)C)C(=O)N[C@@H](C)C(=O)N[C@@H](CCCNC(=N)N)C(=O)N[C@H](C(N)=O)C(C)C)[C@@H](C)CC)[C@@H](C)O)[C@@H](C)O)[C@@H](C)CC)[C@@H](C)CC)C(C)C)C(C)C [compound 9] (H-IVLSLDVPIGLLQILLEQARARAAREQATTQARILARV-NH2) | ≤ 7.00 | ≤ 7.00
3 | CC[C@H](C)[C@H](NC(=O)[C@H](CC(=O)O)NC(=O)[C@H](CC(C)C)NC(=O)[C@H](CC(C)C)NC(=O)[C@H](CCCCN)NC(=O)[C@H](CCCNC(=N)N)NC(=O)[C@H](CC(N)=O)NC(=O)[C@H](CO)NC(=O)[C@H](Cc1c[nH]cn1)NC(=O)[C@H](C)NC(=O)[C@H](CCC(N)=O)NC(=O)[C@H](CCC(N)=O)NC(=O)[C@H](C)NC(=O)[C@H](CC(C)C)NC(=O)[C@H](CCC(N)=O)NC(=O)[C@H](CC(=O)O)NC(=O)[C@H](C)NC(=O)[C@H](CCCCN)NC(=O)[C@@H](NC(=O)[C@H](CCSC)NC(=O)[C@H](CCC(=O)O)NC(=O)[C@H](CC(C)C)NC(=O)[C@@H](NC(=O)[C@H](CCC(=O)O)NC(=O)[C@H](CCCNC(=N)N)NC(=O)[C@H](CC(C)C)NC(=O)[C@H](CC(C)C)NC(=O)[C@H](Cc1c[nH]cn1)NC(=O)[C@H](Cc1ccccc1)NC(=O)[C@@H]1CCCN1C(=O)[C@H](CC(C)C)NC(=O)[C@H](CC(=O)O)NC(=O)[C@H](CC(C)C)NC(=O)[C@H](CO)NC(=O)[C@@H](NC(=O)[C@@H]1CCCN1C(=O)[C@@H]1CCCN1C(=O)[C@H](CCC(=O)O)NC(=O)[C@H](CCC(N)=O)NC(=O)[C@@H](N)CO)[C@@H](C)CC)C(C)C)[C@@H](C)O)C(=O)N[C@@H](C)C(N)=O [compound 104] | ≤ 7.00 | ≤ 7.00
4 | CC[C@H](C)[C@H](N)C(=O)N[C@H](C(=O)N[C@@H](CC(C)C)C(=O)N[C@@H](CO)C(=O)N[C@@H](CC(C)C)C(=O)N[C@@H](CC(=O)O)C(=O)N[C@H](C(=O)N1CCC[C@H]1C(=O)N[C@H](C(=O)NCC(=O)N[C@@H](CC(C)C)C(=O)N[C@@H](CC(C)C)C(=O)N[C@@H](CCC(N)=O)C(=O)N[C@H](C(=O)N[C@@H](CC(C)C)C(=O)N[C@@H](CC(C)C)C(=O)N[C@@H](CCC(=O)O)C(=O)N[C@@H](CCC(N)=O)C(=O)N[C@@H](C)C(=O)N[C@@H](CCCCN)C(=O)N[C@@H](C)C(=O)N[C@@H](CCCNC(=N)N)C(=O)N[C@@H](C)C(=O)N[C@@H](C)C(=O)N[C@@H](CCCNC(=N)N)C(=O)N[C@@H](CCC(=O)O)C(=O)N[C@@H](CCC(N)=O)C(=O)N[C@@H](C)C(=O)N[C@H](C(=O)N[C@H](C(=O)N[C@@H](CC(N)=O)C(=O)N[C@@H](C)C(=O)N[C@@H](CCCNC(=N)N)C(=O)N[C@H](C(=O)N[C@@H](CC(C)C)C(=O)N[C@@H](C)C(=O)N[C@@H](CCCNC(=N)N)C(=O)N[C@H](C(N)=O)C(C)C)[C@@H](C)CC)[C@@H](C)O)[C@@H](C)O)[C@@H](C)CC)[C@@H](C)CC)C(C)C)C(C)C [compound 109] (H-IVLSLDVPIGLLQILLEQAKARAAREQATTNARILARV-NH2; N-terminus assumed) | 7.93 | –
5 | CC[C@H](C)[C@H](N)C(=O)N[C@H](C(=O)N[C@@H](CC(C)C)C(=O)N[C@@H](CO)C(=O)N[C@@H](CC(C)C)C(=O)N[C@@H](CC(=O)O)C(=O)N[C@H](C(=O)N1CCC[C@H]1C(=O)N[C@H](C(=O)NCC(=O)N[C@@H](CC(C)C)C(=O)N[C@@H](CC(C)C)C(=O)N[C@@H](CCC(N)=O)C(=O)N[C@H](C(=O)N[C@@H](CC(C)C)C(=O)N[C@@H](CC(C)C)C(=O)N[C@@H](CCC(=O)O)C(=O)N[C@@H](CCC(N)=O)C(=O)N[C@H](C(=O)N[C@@H](CCCCN)C(=O)N[C@@H](C)C(=O)N[C@@H](CCCNC(=N)N)C(=O)N[C@@H](C)C(=O)N[C@@H](C)C(=O)N[C@@H](CCCNC(=N)N)C(=O)N[C@@H](CCC(=O)O)C(=O)N[C@@H](CCC(N)=O)C(=O)N[C@@H](C)C(=O)N[C@H](C(=O)N[C@H](C(=O)N[C@@H](CC(N)=O)C(=O)N[C@@H](C)C(=O)N[C@@H](CCCNC(=N)N)C(=O)N[C@H](C(=O)N[C@@H](CC(C)C)C(=O)N[C@@H](C)C(=O)N[C@@H](CCCNC(=N)N)C(=O)N[C@H](C(N)=O)C(C)C)[C@@H](C)CC)[C@@H](C)O)[C@@H](C)O)[C@@H](C)O)[C@@H](C)CC)[C@@H](C)CC)C(C)C)C(C)C [compound 117] (H-IVLSLDVPIGLLQILLEQTKARAAREQATTNARILARV-NH2; N-terminus assumed) | 8.03 | –
6 | SQEPPISLDLPLELLREVLEMTKADQLAQQAHSNRKLLDIA-NH2 [compound 89] | ≤ 7.00 | –

Reference: patent US7632933B2, “Corticotropin releasing factor 2 receptor agonists” (priority 2002, dated 2009)
